From patent US20090270350A1, “Pyridinone Pyrazole Urea and Pyrimidinone Pyrazole Urea Derivatives” (PFIZER INC., priority 2006, published 2009)
pIC50: −log10 of the molar value.

System: not given
Test: not given
Conditions: not given

SMILES	melting point
COC(=O)c1ccc(C)c(-n2c(C)cc(OCc3ccc(F)cc3CNC(=O)Nc3cc(C(C)(C)C)nn3-c3ccc(O)c(Cl)c3)c(Cl)c2=O)c1 [Example 140, 3-[4-(2-{3-[5-tert-butyl-2-(3-chloro-4-hydroxy-phenyl)-2H-pyrazol-3-yl]-ureidomethyl}-4-fluoro-benzyloxy)-3-chloro-6-methyl-2-oxo-2H-pyridin-1-yl]-4-methyl-benzoic acid methyl ester]	197 to 200 °C
Cc1ccc(C(=O)NCCN(C)C)cc1-n1c(C)cc(OCc2ccc(F)cc2CNC(=O)Nc2cc(C(C)(C)C)nn2-c2ccc(Cl)c(O)c2)c(Cl)c1=O [Example 166, 3-[4-(2-{3-[5-tert-Butyl-2-(4-chloro-3-hydroxy-phenyl)-2H-pyrazol-3-yl]-ureidomethyl}-4-fluoro-benzyloxy)-3-chloro-6-methyl-2-oxo-2H-pyridin-1-yl]-N-(2-dimethylamino-ethyl)-4-methyl-benzamide]	177 to 178 °C
CNC(=O)c1ccc(C)c(-n2c(C)cc(OCc3ccc(F)cc3CNC(=O)Nc3cc(C(C)(C)C)nn3-c3ccc(O)c(Cl)c3)c(Cl)c2=O)c1 [Example 169, 3-[4-(2-{3-[5-tert-butyl-2-(3-chloro-4-hydroxy-phenyl)-2H-pyrazol-3-yl]-ureidomethyl}-4-fluoro-benzyloxy)-3-chloro-6-methyl-2-oxo-2H-pyridin-1-yl]-4,N-dimethyl-benzamide]	177 to 180 °C
Cc1ccc(C(=O)NCC(O)CO)cc1-n1c(C)cc(OCc2ccccc2CNC(=O)Nc2cc(C(C)(C)C)nn2-c2ccc(Cl)c(O)c2)c(Cl)c1=O (stereo not shown) [Example 168, 3-[4-(2-{3-[5-tert-Butyl-2-(4-chloro-3-hydroxy-phenyl)-2H-pyrazol-3-yl]-ureidomethyl}-benzyloxy)-3-chloro-6-methyl-2-oxo-2H-pyridin-1-yl]-N-(2,3-dihydroxy-propyl)-4-methyl-benzamide]	169 to 171 °C
COC(=O)c1ccc(C)c(-n2c(C)cc(OCc3ccccc3CNC(=O)Nc3cc(C(C)(C)C)nn3-c3ccc(O)c(Cl)c3)c(Cl)c2=O)c1 [Example 137, 3-[4-(2-{3-[5-tert-butyl-2-(3-chloro-4-hydroxy-phenyl)-2H-pyrazol-3-yl]-ureidomethyl}-benzyloxy)-3-chloro-6-methyl-2-oxo-2H-pyridin-1-yl]-4-methyl-benzoic acid methyl ester]	185 to 186 °C
Cc1ccc(C(=O)NCCO)cc1-n1c(C)cc(OCc2ccccc2CNC(=O)Nc2cc(C(C)(C)C)nn2-c2cccc(OCCO)c2)c(Cl)c1=O [Example 132, 3-{4-[2-(3-{5-tert-Butyl-2-[3-(2-hydroxy-ethoxy)-phenyl]-2H-pyrazol-3-yl}-ureidomethyl)-benzyloxy]-3-chloro-6-methyl-2-oxo-2H-pyridin-1-yl}-N-(2-hydroxy-ethyl)-4-methyl-benzamide]	162 to 163 °C
COCCNC(=O)c1ccc(C)c(-n2c(C)cc(OCc3ccccc3CNC(=O)Nc3cc(C(C)(C)C)nn3-c3cccc(OCCO)c3)c(Cl)c2=O)c1 [Example 173]	143 to 145 °C
Cc1ccc(C(=O)NCCN(C)C)cc1-n1c(C)cc(OCc2ccccc2CNC(=O)Nc2cc(C(C)(C)C)nn2-c2cccc(OCCO)c2)c(Cl)c1=O [Example 174]	164 to 165 °C
COCCNC(=O)c1ccc(C)c(-n2c(C)cc(OCc3ccccc3CNC(=O)Nc3cc(C(C)(C)C)nn3-c3ccc(Cl)c(O)c3)c(Cl)c2=O)c1 [Example 163, 3-[4-(2-{3-[5-tert-butyl-2-(4-chloro-3-hydroxy-phenyl)-2H-pyrazol-3-yl]-ureidomethyl}-benzyloxy)-3-chloro-6-methyl-2-oxo-2H-pyridin-1-yl]-N-(2-methoxy-ethyl)-4-methyl-benzamide]	182 to 183 °C
Cc1ccc(C(=O)OCCO)cc1-n1c(C)cc(OCc2ccc(F)cc2CNC(=O)Nc2cc(C(C)(C)C)nn2-c2cccc(OCCO)c2)c(Cl)c1=O [Example 180, 3-{4-[2-(3-{5-tert-butyl-2-[3-(2-hydroxy-ethoxy)-phenyl]-2H-pyrazol-3-yl}-ureidomethyl)-4-fluoro-benzyloxy]-3-chloro-6-methyl-2-oxo-2H-pyridin-1-yl}-4-methyl-benzoic acid 2-hydroxy-ethyl ester]	180 to 181 °C
COC(=O)c1ccc(C)c(-n2c(C)cc(OCc3ccccc3CNC(=O)Nc3cc(C(C)(C)C)nn3-c3ccc(O)cc3)c(Cl)c2=O)c1 [Example 135, 3-[4-(2-{3-[5-tert-butyl-2-(4-hydroxy-phenyl)-2H-pyrazol-3-yl]-ureidomethyl}-benzyloxy)-3-chloro-6-methyl-2-oxo-2H-pyridin-1-yl]-4-methyl-benzoic acid methyl ester]	199 to 200 °C

Target: p38α (Homo sapiens, UniProt Q16539)
Sequence (Q16539 whole entry): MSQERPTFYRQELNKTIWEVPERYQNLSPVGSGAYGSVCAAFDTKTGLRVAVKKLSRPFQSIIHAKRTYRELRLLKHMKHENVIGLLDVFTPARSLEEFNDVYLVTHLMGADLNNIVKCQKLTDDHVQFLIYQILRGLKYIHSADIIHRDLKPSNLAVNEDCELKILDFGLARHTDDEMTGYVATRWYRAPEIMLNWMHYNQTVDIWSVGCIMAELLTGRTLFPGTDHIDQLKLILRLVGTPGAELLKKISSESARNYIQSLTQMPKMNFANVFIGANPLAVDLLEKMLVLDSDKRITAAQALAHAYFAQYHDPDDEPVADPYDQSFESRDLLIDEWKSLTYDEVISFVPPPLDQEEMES
Test: p38α/MK2 cascade assay
Format: biochemical
Conditions: Table 1; inhibitors preincubated with p38α for 40 minutes; phosphorylation of Hsp27 peptide by MK-2, Caliper LabChip 3000; read-out: p38a/MK2 Cascade 40 min Pre-Incuabtion (% Inhibition): IC50
Outline: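 In a cascade format, p38α was preincubated 40 min with inhibitor (1000–0.05 nM) before adding 1 nM nonactive MK2 (54-400), 5 μM MgATP and 0.5 μM FITC-Hsp27 peptide. Reaction ran 60 min in HEPES pH 7.5 with MgCl2, DTT, 2% DMSO, then EDTA-quenched. Peptide phosphorylation was measured by Caliper mobility shift to give IC50.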

SMILES	pIC50
COc1ccc(Cn2c(C)cc(OCc3ccccc3CNC(=O)Nc3cc(C(C)(C)C)nn3-c3ccc(O)c(Cl)c3)c(Cl)c2=O)cc1 [Example 58, 1-[3-tert-butyl-1-(3-chloro-4-hydroxyphenyl)-1H-pyrazol-5-yl]-3-[2-({[3-chloro-1-(4-methoxybenzyl)-6-methyl-2-oxo-1,2-dihydropyridin-4-yl]oxy}methyl)benzyl]urea]	8.34
COC(=O)c1ccc(C)c(-n2c(C)cc(OCc3ccc(F)cc3CNC(=O)Nc3cc(C(C)(C)C)nn3-c3cccc(OC)c3)c(Cl)c2=O)c1 [Example 183, Methyl 3-{4-[(2-{[({[3-tert-butyl-1-(3-methoxyphenyl)-1H-pyrazol-5-yl]amino}carbonyl)amino]methyl}-4-fluorobenzyl)oxy]-3-chloro-6-methyl-2-oxopyridin-1(2H)-yl}-4-methylbenzoate]	8.65
COc1ccc(Cn2c(C)cc(OCc3ccc(F)cc3CNC(=O)Nc3cc(C(C)(C)C)nn3-c3ccc(O)c(Cl)c3)c(Cl)c2=O)cc1 [Example 62, 1-[3-tert-butyl-1-(3-chloro-4-hydroxyphenyl)-1H-pyrazol-5-yl]-3-[2-({[3-chloro-1-(4-methoxybenzyl)-6-methyl-2-oxo-1,2-dihydropyridin-4-yl]oxy}methyl)-5-fluorobenzyl]urea]	8.35
Cc1ccc(-n2nc(C(C)(C)C)cc2NC(=O)NCc2cc(F)ccc2COc2cc(C)n(-c3cc(C(=O)O)ccc3C)c(=O)c2Cl)cc1 [Example 186, 3-{4-[(2-{[({[3-tert-butyl-1-(4-methylphenyl)-1H-pyrazol-5-yl]amino}carbonyl)amino]methyl}-4-fluorobenzyl)oxy]-3-chloro-6-methyl-2-oxopyridin-1(2H)-yl}-4-methylbenzoic acid]	8.34

Same assay, conditions: Table 2; same p38α/MK2 cascade assay; 40 minutes preincubation; read-out: p38a/MK2 Cascade 40 min Pre-Incuabtion (% Inhibition): IC50

SMILES	pIC50
COc1cccc(Cn2c(C)cc(OCc3ccc(F)cc3CNC(=O)Nc3cc(C(C)(C)C)nn3-c3cccc(OC)c3)c(Cl)c2=O)c1 [Example 201, 1-[3-tert-butyl-1-(3-methoxyphenyl)-1H-pyrazol-5-yl]-3-[2-({[3-chloro-1-(3-methoxybenzyl)-6-methyl-2-oxo-1,2-dihydropyridin-4-yl]oxy}methyl)-5-fluoro-benzyl]urea]	8.35
Cc1cc(OCc2ccccc2CNC(=O)Nc2cc(C(C)(C)C)nn2-c2ccc(O)c(Cl)c2)c(Cl)c(=O)n1Cc1cccc(CNC(=O)CO)c1 [Example 261, N-[3-({4-[(2-{[({[3-tert-butyl-1-(3-chloro-4-hydroxyphenyl)-1H-pyrazol-5-yl]amino}carbonyl)amino]methyl}benzyl)oxy]-3-chloro-6-methyl-2-oxopyridin-1(2H)-yl}methyl)benzyl]-2-hydroxyacetamide]	8.05
CNC(=O)c1ccc(C)c(-n2c(C)cc(OCc3ccc(F)cc3CNC(=O)Nc3cc(C(C)(C)C)nn3-c3ccc(C)cc3)c(Br)c2=O)c1 [Example 279, 3-{3-bromo-4-[(2-{[({[3-tert-butyl-1-(4-methylphenyl)-1H-pyrazol-5-yl]amino}carbonyl)-amino]methyl}-4-fluorobenzyl)oxy]-6-methyl-2-oxopyridin-1(2H)-yl}-N,4-dimethylbenzamide]	8.44
COc1ccccc1Cn1c(C)cc(OCc2ccccc2CNC(=O)Nc2cc(C(C)(C)SC)nn2-c2cccc(O)c2)c(Cl)c1=O [Example 276, 1-[2-({[3-chloro-1-(2-methoxybenzyl)-6-methyl-2-oxo-1,2-dihydropyridin-4-yl]oxy}methyl)benzyl]-3-{1-(3-hydroxyphenyl)-3-[1-methyl-1-(methylthio)ethyl]-1H-pyrazol-5-yl}ure]	7.69
COC(=O)c1ccc(C)c(-n2c(C)cc(OCc3ccccc3CNC(=O)Nc3cc(C(C)(C)C)nn3-c3ccc(O)c(Cl)c3)c(Cl)c2=O)c1 [Example 222, methyl 3-{4-[(2-{[({[3-tert-butyl-1-(3-chloro-4-hydroxy-phenyl)-1H-pyrazol-5-yl]amino}carbonyl)amino]-methyl}-benzyl)oxy]-3-chloro-6-methyl-2-oxopyridin-1(2H)-yl}-4-methylbenzoate]	8.02
CSc1ccccc1Cn1c(C)cc(OCc2ccccc2CNC(=O)Nc2cc(C(C)(C)C)nn2-c2cccc(O)c2)c(C)c1=O [Example 278, 1-[3-tert-butyl-1-(3-hydroxyphenyl)-1H-pyrazol-5-yl]-3-{2-[({3,6-dimethyl-1-[2-(methylthio)benzyl]-2-oxo-1,2-dihydropyridin-4-yl}oxy)methyl]benzyl}urea]	7.88
COCCNC(=O)c1ccc(C)c(-n2c(C)cc(OCc3ccccc3CNC(=O)Nc3cc(C(C)(C)C)nn3-c3cccc(OCCO)c3)c(Cl)c2=O)c1 [Example 238, 3-[4-{[2-({[({3-tert-butyl-1-[3-(2-hydroxyethoxy)phenyl]-1H-pyrazol-5-yl}amino)carbonyl]amino}methyl)benzyl]oxy}-3-chloro-6-methyl-2-oxopyridin-1(2H)-yl]-N-(2-methoxyethyl)-4-methylbenzamide]	8.70
